{"source": "patent US20240050735A1", "about": "“SYSTEMS AND METHODS FOR TREATING AND INHIBITING WOUND INFECTIONS” (priority 2020, published 2024)", "key": {"[1]": {"system": "MRSA biofilm-infected porcine skin wound", "experiment": "Ex vivo anti-biofilm efficacy, standard plate counting assay", "format": "cell-based, Methicillin-resistant S. aureus (MRSA) USA300", "experimental": "Same as previous tests, an ex vivo MRSA biofilm-infected porcine skin wound model was used here. First the biofilm treatment efficacy was tested when different current intensities were used with a fixed VAN loading concentration at 1 mg mL^−1. After a single treatment for 1 hour, wound tissues were incubated for 24 hours in a 37° C. incubator to allow VAN to take effect. After incubation, tissue samples were collected and evaluated for bacterial count using the standard plate counting assay for MRSA colony. […] Treating the biofilm with no current for 1 hour (only VAN diffusion) or a low current of 0.5 mA cm^−2 for 1 hour induced a minimal MRSA count reduction to 10^9.8 CFU g^−1 and 10^9.6 CFU g^−1, respectively. When 19 mA cm^−2, 38 mA cm^−2, and 75 mA cm^−2 were applied, MRSA count was further reduced to 10^8.6 CFU g^−1, 10^8.3 CFU g^−1 and 10^7.6 CFU g^−1, respectively (see FIGS. 5A and 5F). […] Because 75 mA cm^−2 had better anti-biofilm efficacy than other conditions, it was selected for the following tests.\nThe fetal pig skin samples (approximately 30×30 mm) were immersed in 10% (v/v) bleach for 5 minutes after hair removal. Then, skin samples were sterilized in 70% ethanol for 30 minutes. The surface of skin sample was further cleaned by 10% povidone-iodine and 70% isopropanol to prevent contamination. A 6-mm disposable biopsy punch was used to create an excisional wound. Samples were put into sterile 10-cm petri-dishes filled with sterile PBS (6 mL). The wound was then inoculated with 1×10^8 CFU mL^−1 MRSA bacteria solution (20 μL). The bacteria were allowed to grow in a 37° C. Heratherm™ compact microbiological incubator (ThermoFischer Scientific™, Waltham, Mass., USA) for 48 hours to form mature biofilms.\nThe HIC-based biofilm treatment system 100 embodiment shown in FIG. 18 was used to test electrical debridement treatment of high-intensity current on ex vivo MRSA biofilm infected skin wounds. The MRSA biofilm infected skin wound was sandwiched between anode and cathode HIC-based devices (i.e., the working device 104 and the counter device 106). To evaluate the anti-biofilm effect of high current intensity only, PBS (5 mL) was filled in both drug/buffer chamber 114 and PBS chamber 122 and then 0.5 mA cm^−2, 19 mA cm^−2, 38 mA cm^−2, and 75 mA cm^−2 was applied for 1 hour, respectively. The device/skin wound contact area was 0.502 cm^2. Skin samples were collected by 8-mm biopsy punch immediately after test or at 24 hours after testing. To evaluate the biofilm thickness before and after different treatments, samples were embedded in tissue freezing medium (OCT) and sectioned at 8 μm. After being imaged in microscope, the thickness of biofilms after different treatments were measured using ImageJ software. To evaluate the colony-forming unit (CFU) counts per gram of MRSA from infected skin wounds, samples were homogenized in PBS (10 mL) and diluted with PBS, and then transferred to standard plate counting assay. The bactericidal efficacy was calculated as follows:\nThe HIC-based biofilm treatment system 100 embodiment shown in FIG. 18 was used to evaluate combined biofilm treatment efficacy of electrical debridement and VAN delivery. To evaluate the anti-biofilm treatment efficacy of current intensity, 0 mA cm^−2 (passive diffusion) to 75 mA cm^−2 was applied on the HIC-based biofilm treatment system 100 with 1 mg mL^−1 VAN loaded in HIC-based working device 104, respectively. […] To further enhance the anti-biofilm efficacy of electrical debridement and high concentration delivery of VAN, two treatments were applied, named protocol #1 and protocol #2. Protocol #1 applied two treatments (treatment: 75 mA cm^−2 for 1 hour, 1 mg mL^−1 VAN loaded in HIC-based working device 104) separated by 6 hours. Protocol #2 applied two treatments (treatment same as Protocol #1) separated by 24 hours. CFU was counted 24 hours after last treatment using the standard spread counting assay. The bactericidal efficacy was calculated accordingly. […]"}, "HDFa cells": {"system": "HDFa cells", "experiment": "Cell toxicity of high concentration of antibiotics, LIVE/DEAD stain", "format": "cell-based, human", "conditions": "4.5 mg mL^−1 VAN, 48 hour incubation", "experimental": "(§1) To evaluate the cell toxicity of the high concentration of antibiotics, HaCaT cells and HDFa cells were used. 2×10^4 HaCat cells and 2×10^3 HDFa cells were seeded in each well of a 96-well plate. After being cultured in an incubator under 37° C. and 5% CO2 for 24 hours, 4.5 mg mL^−1 VAN and 20 mg mL^−1 DAP were added to the culture media, respectively. Both HaCat cells and HDFa cells were treated by VAN for two days, and exposed to DAP for one day, respectively. The cell toxicity of the two cells at the end time points were evaluated by LIVE/DEAD stain and visualized by a confocal laser scanning microscope (CLSM, LSM 710, Zeiss, Germany)."}, "HaCaT cells": {"system": "HaCaT cells", "experiment": "Cell toxicity of high concentration of antibiotics, LIVE/DEAD stain", "format": "cell-based, human", "conditions": "4.5 mg mL^−1 VAN, 48 hour incubation", "experimental": "as §1"}, "planktonic MRSA": {"system": "planktonic MRSA", "experiment": "Time-killing test on planktonic MRSA in stationary phase", "format": "cell-based, Methicillin-resistant S. aureus (MRSA) USA300", "conditions": "10 mg mL^−1 VAN, 4-day incubation", "experimental": "MRSA bacteria was cultured in LB media in a 37° C. water shaking bath overnight to reach the concentration of 1×10^8 CFU mL^−1. Then, they were diluted to 10^5 CFU mL^−1 in 96-well plates by adding different concentrations of VAN solutions. After incubation for 24 hours without shaking, MIC of VAN to inhibit MRSA growth was measured by a Biotek Synergy H1 hybrid multi-mode microplate reader (BioTek, Winooski, Vt., USA) at OD600. To evaluate the killing time of VAN to bacteria in stationary phase (1×10^8 CFU mL^−1), VAN powder was added to bacteria solution to obtain concentration of 1 mg mL^−1, 3 mg mL^−1, 5 mg mL^−1, and 10 mg mL^−1, respectively, while remaining MRSA concentration of 1×10^8 CFU mL^−1. After incubation in a 37° C. water bath for 1 day, 2 days, 3 days and 4 days, the CFU of MRSA cells was tested by the standard plate spread counting assay, respectively. The time-killing tests of DAP with different concentrations (0.1 mg mL^−1, 0.5 mg mL^−1, 1 mg mL^−1, and 5 mg mL^−1) on MRSA planktonic cells were also performed, with the incubation time up to 24 hours."}, "MRSA biofilm": {"system": "MRSA biofilm", "conditions": "cited from earlier work"}, "C. difficle": {"system": "C. difficle", "conditions": "cited from earlier work"}, "[2]": {"conditions": "75 mA cm^−2 1 hour, 1 mg mL^−1 VAN, 24 hours after"}}, "note": "Where a name gives a salt, the structure may show the parent alone."}
{"smiles": "CN[C@H](CC(C)C)C(=O)N[C@H]1C(=O)N[C@@H](CC(N)=O)C(=O)N[C@H]2C(=O)N[C@H]3C(=O)N[C@H](C(=O)N[C@H](C(=O)O)c4cc(O)cc(O)c4-c4cc3ccc4O)[C@H](O)c3ccc(c(Cl)c3)Oc3cc2cc(c3O[C@@H]2O[C@H](CO)[C@@H](O)[C@H](O)[C@H]2O[C@H]2C[C@](C)(N)[C@H](O)[C@H](C)O2)Oc2ccc(cc2Cl)[C@H]1O", "note": "[VAN, Vancomycin hydrochloride]", "values": [{"measurement": "bactericidal efficacy", "setting": "[1]; 0.5 mA cm^−2 1 hour, 1 mg mL^−1 VAN, 24 hours after", "result": "4.4±2.76", "unit": "times"}, {"measurement": "bactericidal efficacy", "setting": "[1]; 19 mA cm^−2 1 hour, 1 mg mL^−1 VAN, 24 hours after", "result": "57.8±50.30", "unit": "times"}, {"measurement": "bactericidal efficacy", "setting": "[1]; 38 mA cm^−2 1 hour, 1 mg mL^−1 VAN, 24 hours after", "result": "81.4±13.34", "unit": "times"}, {"measurement": "bactericidal efficacy", "setting": "[1]; [2]", "result": "452.8±115.32", "unit": "times"}, {"measurement": "bactericidal rate", "setting": "[1]; [2]", "result": 99.8, "unit": "%"}, {"measurement": "bactericidal efficacy", "setting": "[1]; 75 mA cm^−2 1 hour, 3 mg mL^−1 VAN loading", "result": "112.6±13.58", "unit": "times"}, {"measurement": "bactericidal efficacy", "setting": "[1]; 75 mA cm^−2 1 hour, 5 mg mL^−1 VAN loading", "result": "5.1±3.80", "unit": "times"}, {"measurement": "bactericidal efficacy", "setting": "[1]; 75 mA cm^−2 1 hour, 10 mg mL^−1 VAN loading", "result": "9.7±2.92", "unit": "times"}, {"measurement": "bactericidal efficacy", "setting": "[1]; passive diffusion 1 hour, 1 mg mL^−1 VAN, 24 hours after", "result": "2.7±2.06", "unit": "times"}, {"measurement": "MRSA bacterial count reduction in wound tissue", "setting": "[1]; single 1 hour treatment, 75 mA cm^−2, 1 mg mL^−1 VAN", "result": 2.6, "unit": "login scales"}, {"measurement": "viability of skin cells", "setting": "HDFa cells", "result": "not affected"}, {"measurement": "viability of skin cells", "setting": "HaCaT cells", "result": "not affected"}, {"measurement": "bacterial count after incubation (from 10^8 CFU g^−1)", "setting": "planktonic MRSA", "result": "10^6 CFU g^−1"}, {"measurement": "minimal biofilm eradication concentration (MBEC)", "setting": "MRSA biofilm", "result": 4, "unit": "mg/g"}, {"measurement": "concentration at which antibacterial activity starts to decrease (paradoxical effect)", "setting": "C. difficle", "result": 64, "unit": "×MIC"}]}
